Data as given in patent US11447470B2, “Pyrimidinone-containing compound, preparation method thereof, pharmaceutical composition and application thereof” (YUNNAN UNIVERSITY, priority 2018, dated 2022).
Where two headings read alike, the source gives them in different places.

Experiments:
[1] = Cytotoxicity experiment (MTT method) on C8166 cells; assay type: cell-based; details: human
Experimental: (§1) C8166 cells infected with HIV-1 were used for determining the anti-HIV biological activity at the cellular level. The specific method was described below.
Cytotoxicity experiment: The toxicity of the compounds on C8166 cells was determined by MTT method. In 96-well cell culture plates, the compounds were subjected to 5-fold serial dilution and 100 μL of C8166 cell suspension (4×10^5/mL) was added into each well. Triplicate wells were set for each concentration. […] The cells were incubated at 37° C. in a 5% CO2 incubator for three days, followed by the addition of MTT solution into each well, and then the cells were incubated at 37° C. for 4 hours. 10% SDS-50% DMF was added into each well and the cells were incubated at 37° C. in a 5% CO2 incubator overnight. After mixing evenly, the OD values were measured by BIO-TEK ELx800 ELISA instrument (determination wavelength: 570 nm; reference wavelength: 630 nm).

HIV-1IIIB = assay: Syncytium inhibition experiment, C8166 cells infected with HIV-1IIIB; assay type: cell-based; details: Human immunodeficiency virus 1, 72 h; HIV-1IIIB (MOI=0.04) in C8166 cells, syncytium count, three days
Experimental: as §1
Syncytium inhibition experiment: 100 μL of C8166 cell suspension (4×10^5/mL) was seeded into each well of 96-well cell culture plates containing 5-fold serial dilutions of the compounds, followed by addition of HIV-1IIIB diluted supernatant (MOI=0.04). Triplicate wells were set for each serial concentration. […] The cells were cultured at 37° C. in a 5% CO2 incubator for three days. The number of the syncytia was counted in five non-overlapping fields of view by using an inverted microscope (100×).

[2] = C8166 cells, MTT, three days, read-out: CC50

SMILES	CC50 at 3 days [1]	EC50 (HIV-1IIIB)	CC50 at 3 days [1, 2]
Cc1cn([C@H]2C[C@H](N=[N+]=[N-])[C@@H](CO)O2)c(=O)[nH]c1=O [AZT, Zidovudine, reference compound]	> 749 µM	49 nM	–
CCc1c(CC2CCCCC2)nc(SCc2n[nH]c(-c3ccccc3)c2Cl)[nH]c1=O [Compound I-01]	–	99 nM	–
CCc1c(CC2CCCCC2)nc(SCc2cc(-c3ccccc3)[nH]n2)[nH]c1=O [Compound I-02]	–	7 nM	–
CCc1c(CC2CCCCC2)nc(SCc2cc(-c3cccc(Br)c3)[nH]n2)[nH]c1=O [Compound I-03]	–	51 nM	–
CCc1c(CC2CCCCC2)nc(SCc2n[nH]c(-c3cccc(Br)c3)c2Cl)[nH]c1=O [Compound I-04]	–	101 nM	–
CCc1c(CC2CCCCC2)nc(SCc2cc(-c3cccc(Cl)c3)[nH]n2)[nH]c1=O [Compound I-05]	–	66 nM	–
CCc1c(CC2CCCCC2)nc(SCc2n[nH]c(-c3cccc(Cl)c3)c2Cl)[nH]c1=O [Compound I-06]	–	57 nM	–
CCc1c(CC2CCCCC2)nc(SCc2cc(-c3ccc(Cl)cc3)[nH]n2)[nH]c1=O [Compound I-07]	–	18 nM	–
CCc1c(CC2CCCCC2)nc(SCc2cc(-c3ccc(F)cc3)[nH]n2)[nH]c1=O [Compound I-08]	–	20 nM	–
CCc1c(CC2CCCCC2)nc(SCc2n[nH]c(-c3ccc(F)cc3)c2Cl)[nH]c1=O [Compound I-09]	–	18 nM	–
CCc1c(CC2CCCCC2)nc(SCc2cc(-c3ccc(OC)cc3)[nH]n2)[nH]c1=O [Compound I-10]	–	23 nM	–
CCc1c(CC2CCCCC2)nc(SCc2n[nH]c(-c3ccc(OC)c(Cl)c3)c2Cl)[nH]c1=O [Compound I-11]	–	130 nM	–
CCc1c(CC2CCCCC2)nc(SCc2cc(-c3ccc(Cl)c(Cl)c3)[nH]n2)[nH]c1=O [Compound I-12]	–	310 nM	–
CCc1c(CC2CCCCC2)nc(SCc2cc(-c3cccc(F)c3)[nH]n2)[nH]c1=O [Compound I-14]	–	35 nM	–
CCc1c(CC2CCCCC2)nc(SCc2n[nH]c(-c3cccc(F)c3)c2Cl)[nH]c1=O [Compound I-15]	–	71 nM	–
CCc1c(CC2CCCCC2)nc(SCc2n[nH]c(-c3ccc(Cl)cc3)c2Cl)[nH]c1=O [Compound I-16]	–	89 nM	–
CCc1c(CC2CCCCC2)nc(SCc2cc(-c3ccc(O)cc3)[nH]n2)[nH]c1=O [Compound I-17]	–	4 nM	–
CCc1c(CC2CCCCC2)nc(SCc2cc(-c3ccc(F)c(F)c3)[nH]n2)[nH]c1=O [Compound I-18]	–	162 nM	–
CCc1c(CC2CCCCC2)nc(SCc2n[nH]c(-c3ccc(F)c(F)c3)c2Cl)[nH]c1=O [Compound I-19]	–	151 nM	–
CCc1c(CC2CCCCC2)nc(SCc2cc(-c3ccc(F)cc3F)[nH]n2)[nH]c1=O [Compound I-20]	–	42 nM	–
CCc1c(CC2CCCCC2)nc(SCc2cc(-c3ccc(C)cc3)[nH]n2)[nH]c1=O [Compound I-21]	–	74 nM	82.8 µM

SMILES	CC50 at 3 days [1]	EC50 (HIV-1IIIB)	CC50 at 3 days [1, 2]
CCc1c(CC2CCCCC2)nc(SCc2n[nH]c(-c3ccc(C)cc3)c2Cl)[nH]c1=O [Compound I-22]	–	138 nM	–
CCc1c(CC2CCCCC2)nc(SCc2cc(-c3cccc(C)c3)[nH]n2)[nH]c1=O [Compound I-23]	–	52 nM	91.4 µM
CCc1c(CC2CCCCC2)nc(SCc2n[nH]c(-c3cccc(C)c3)c2Cl)[nH]c1=O [Compound I-24]	–	86 nM	–
CCc1c(CC2CCCCC2)nc(SCc2cc(-c3ccc(SC)cc3)[nH]n2)[nH]c1=O [Compound I-25]	–	12 nM	–
CCc1c(CC2CCCCC2)nc(SCc2cc(-c3cccc(C(F)(F)F)c3)[nH]n2)[nH]c1=O [Compound I-26]	–	302 nM	–
CCc1c(CC2CCCCC2)nc(SCc2n[nH]c(-c3cccc(C(F)(F)F)c3)c2Cl)[nH]c1=O [Compound I-27]	–	182 nM	–
CCc1c(CC2CCCCC2)nc(SCc2cc(-c3ccc(C(C)C)cc3)[nH]n2)[nH]c1=O [Compound I-28]	–	147 nM	–
CCc1c(CC2CCCCC2)nc(SCc2cc(-c3ccc(C)cc3C)[nH]n2)[nH]c1=O [Compound I-29]	–	476 nM	–
CCc1c(CC2CCCCC2)nc(SCc2cc(C(C)(C)C)[nH]n2)[nH]c1=O [Compound I-30]	–	296 nM	–
CCc1c(CC2CCCCC2)nc(SCc2cc[nH]n2)[nH]c1=O [Compound I-31]	–	33 nM	–
CCc1c(CC2CCCCC2)nc(SCc2cc(C)[nH]n2)[nH]c1=O [Compound I-32]	–	28 nM	–
CCc1c(CC2CCCCC2)nc(SCc2cc(C3CC3)[nH]n2)[nH]c1=O [Compound I-33]	–	25 nM	–
CCc1c(CC2CCCCC2)nc(SCc2cc(-c3ccccn3)[nH]n2)[nH]c1=O [Compound I-34]	–	23 nM	–
CC(C)c1c(CC2CCCCC2)nc(SCc2cc(-c3ccccc3)[nH]n2)[nH]c1=O [Compound I-35]	104 µM	2 nM	–
CC(C)c1c(CC2CCCCC2)nc(SCc2cc(-c3ccc(Cl)cc3)[nH]n2)[nH]c1=O [Compound I-36]	91.2 µM	9 nM	–
CC(C)c1c(CC2CCCCC2)nc(SCc2n[nH]c(-c3ccc(F)cc3)c2Cl)[nH]c1=O [Compound I-37]	73 µM	6 nM	–
CC(C)c1c(CC2CCCCC2)nc(SCc2cc(-c3ccc(O)cc3)[nH]n2)[nH]c1=O [Compound I-38]	156 µM	3 nM	–
CC(C)c1c(CC2CCCCC2)nc(SCc2cc(-c3ccc(F)cc3)[nH]n2)[nH]c1=O [Compound I-39]	99 µM	16 nM	–
Cc1c(CC2CCCCC2)nc(SCc2cc(-c3ccccc3)[nH]n2)[nH]c1=O [Compound I-41]	–	186 nM	–
Cc1c(CC2CCCCC2)nc(SCc2cc(-c3ccc(F)cc3)[nH]n2)[nH]c1=O [Compound I-42]	–	355 nM	–
COc1ccc(-c2cc(CSc3nc(CC4CCCCC4)c(C)c(=O)[nH]3)n[nH]2)cc1 [Compound I-43]	–	194 nM	–

SMILES	CC50 at 3 days [1]	EC50 (HIV-1IIIB)	CC50 at 3 days [1, 2]
O=c1cc(CC2CCCCC2)nc(SCc2cc(-c3ccccc3)[nH]n2)[nH]1 [Compound I-44]	–	5340 nM	–
O=c1cc(CC2CCCCC2)nc(SCc2cc(-c3ccc(F)cc3)[nH]n2)[nH]1 [Compound I-45]	–	10100 nM	–
COc1ccc(-c2cc(CSc3nc(CC4CCCCC4)cc(=O)[nH]3)n[nH]2)cc1 [Compound I-46]	–	3960 nM	–
Cc1c(CC2CCCCC2)nc(SCc2cc(-c3ccc(O)cc3)[nH]n2)[nH]c1=O [Compound I-47]	61.8 µM	142 nM	–
O=c1cc(CC2CCCCC2)nc(SCc2n[nH]c(-c3ccccc3)c2Cl)[nH]1 [Compound I-48]	98.9 µM	927 nM	–
CCc1c(Cc2ccc3c(c2)OCO3)nc(SCc2cc(-c3ccc(F)cc3)[nH]n2)[nH]c1=O [Compound I-50]	78 µM	2970 nM	–
CCc1c(Cc2c(Cl)cccc2Cl)nc(SCc2cc(-c3ccc(F)cc3)[nH]n2)[nH]c1=O [Compound I-51]	45.5 µM	602 nM	–
O=c1cc(CC2CCCCC2)nc(SCc2n[nH]c(-c3ccc(F)c(F)c3)c2Cl)[nH]1 [Compound I-54]	89 µM	3880 nM	–
Cc1c(CC2CCCCC2)nc(SCc2n[nH]c(-c3ccc(F)c(F)c3)c2Cl)[nH]c1=O [Compound I-56]	40.3 µM	587 nM	–
CCc1c(Cc2cc(F)cc(F)c2)nc(SCc2n[nH]c(-c3ccc(F)c(F)c3)c2Cl)[nH]c1=O [Compound I-57]	81.1 µM	80 nM	–
CCc1c(Cc2ccccc2)nc(SCc2cc(-c3ccc(F)c(F)c3)[nH]n2)[nH]c1=O [Compound I-58]	81 µM	400 nM	–
O=c1cc(CC2CCCCC2)nc(SCc2cc(-c3ccc(F)c(F)c3)[nH]n2)[nH]1 [Compound I-59]	89.1 µM	23900 nM	–
CCc1c(Cc2c(Cl)cccc2Cl)nc(SCc2cc(-c3ccc(F)c(F)c3)[nH]n2)[nH]c1=O [Compound I-60]	64.9 µM	733 nM	–
CCc1c(Cc2cc(F)cc(F)c2)nc(SCc2cc(-c3ccc(F)c(F)c3)[nH]n2)[nH]c1=O [Compound I-61]	46.4 µM	124 nM	–
CCc1c(Cc2ccc3c(c2)OCO3)nc(SCc2cc(-c3ccc(F)c(F)c3)[nH]n2)[nH]c1=O [Compound I-62]	> 200 µM	4980 nM	–
CCc1c(Cc2cc(F)cc(F)c2)nc(SCc2n[nH]c(-c3ccc(F)cc3)c2Cl)[nH]c1=O [Compound I-63]	> 200 µM	63 nM	–
CCc1c(Cc2c(Cl)cccc2Cl)nc(SCc2n[nH]c(-c3ccc(F)cc3)c2Cl)[nH]c1=O [Compound I-64]	> 200 µM	643 nM	–
CCc1c(Cc2ccc3c(c2)OCO3)nc(SCc2n[nH]c(-c3ccc(F)cc3)c2Cl)[nH]c1=O [Compound I-65]	> 200 µM	370 nM	–
O=c1cc(CC2CCCCC2)nc(SCc2n[nH]c(-c3ccc(F)cc3)c2Cl)[nH]1 [Compound I-67]	> 200 µM	847 nM	–
Cc1c(CC2CCCCC2)nc(SCc2n[nH]c(-c3ccc(F)cc3)c2Cl)[nH]c1=O [Compound I-68]	> 200 µM	111 nM	–
Cc1ccnc2c1NC(=O)c1cccnc1N2C1CC1 [NVP, Nevirapine, reference compound]	–	58.4 nM	–
